{"source": "patent US8889671B2", "about": "“Compounds and methods for treating bacterial infections” (AstraZeneca AB, priority 2013, dated 2014)", "key": {"[1]": {"target": "Escherichia coli DNA gyrase A/B tetramer (Escherichia coli (strain K12), UniProt P0AES4+P0AES6)", "assay": "DNA gyrase supercoiling activity fluorescence polarisation assay", "format": "biochemical", "details": "Eco Gyr FP Mean IC50, E. coli DNA gyrase supercoiling, 0.3 mM ATP", "how_it_was_run": "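Relaxed triplex-forming plasmid (130 micrograms/mL) supercoiled by 5 nM gyrase A/B tetramer in Tris-HCl pH 7.5 buffer with 4 mM MgCl2 and 0.3 mM ATP, ~30 min, ambient temperature. Quenched with 5′-BODIPY-FL triplex probe at pH 3.5; fluorescence anisotropy read after 60 min. IC50 by nonlinear regression against two control reactions.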"}, "[2]": {"tested_on": "Streptococcus pyogenes ATCC12384", "assay": "Modal MIC against S. pyogenes ATCC12384", "format": "cell-based", "description": "The MIC against S. pyogenes ATCC12384 was determined using the broth microdilution method following CLSI guidelines. Three individual determinations were performed for each strain and the Modal MIC was used for all PK/PD calculations. All animal experiments were performed under UK Home Office Licensure with local ethical committee clearance. All experiments were performed by technicians who have completed parts 1, 2 and 3 of the Home Office Personal License course and hold current personal licenses."}, "[3]": {"assay": "Plasma pharmacokinetics in S. pyogenes infected mice", "format": "in vivo", "details": "mouse, ip, with ABT", "description": "Groups of satellite mice infected with S. pyogenes, as described above, were used for determining plasma concentrations. Dosing started 2 hours after infection and whole blood samples were taken at 0.5, 1, 2, 4, 6, 8, 12 and 24 h. Mice from the satellite PK study were euthanized by inhaled 5% isofluorane at specified time points post-treatment, mice were bled immediately by cardiac puncture. Heparinised blood samples were separated by centrifugation for five minutes at 13200 rpm. Plasma samples were stored at minus 80° C. before transfer to the client for analysis.\nFor the PK arm of the study, 3 mice per time point per unit dose were used. Due to unintended changes in the final work order, the 80 and 160 mg/kg dosing groups initially were administered Example 5 without prior treatment with aminobenzotriazole. Once this was realised, the remaining mice were re-distributed across the dosing groups and group size was reduced to two mice per time point.\nBiological samples containing Example 5 were extracted using protein precipitation. To one volume of sample, 5 volumes of acetonitrile containing the internal standard (Glyburide) were added. The mixture was then mixed and the plate was centrifuged at 3200 rpm for 5 min. A 200 μL volume of the supernatant was dried down and, reconstituted in mobile phase and the mixture was injected onto liquid chromatography-mass spectrometry (LC-MS). A Sciex API 4000, controlled by Analyst v1.4.2, was used for the acquisition of the data and the quantification of Example 5.\nThe plasma profile for each dose group was obtained by calculating the average plasma concentration of compound in each of the two to three animals per time point. The area under the plasma concentration time curve from zero to infinity (AUC); maximum plasma drug concentration (Cmax); time to reach maximum concentration (tmax); and plasma half-life (t1/2) for each dose group was determined by non-compartmental analysis (WinNonLin 5.2, Pharsight). The non-compartmental Model 200 was used in the analysis."}, "Burkholderia cepacia": {"tested_on": "Burkholderia cepacia", "assay": "In vitro antibacterial activity of Example 5 (MIC)", "format": "cell-based"}, "Candida albicans": {"tested_on": "Candida albicans", "assay": "In vitro antibacterial activity of Example 5 (MIC)", "format": "cell-based", "details": "ATCC90028; Candida albicans (ATCC 90028 CLSI QC Strain)"}, "Enterococcus faecium": {"tested_on": "Enterococcus faecium", "assay": "In vitro antibacterial activity of Example 5 (MIC)", "format": "cell-based"}, "Klebsiella oxytoca": {"tested_on": "Klebsiella oxytoca", "assay": "In vitro antibacterial activity of Example 5 (MIC)", "format": "cell-based"}, "[4]": {"tested_on": "Staphylococcus epidermidis", "assay": "In vitro antibacterial activity of Example 5 (MIC)", "format": "cell-based"}, "[5]": {"tested_on": "Staphylococcus saprophyticus", "assay": "In vitro antibacterial activity of Example 5 (MIC)", "format": "cell-based"}, "Propionibacterium acnes": {"tested_on": "Propionibacterium acnes", "assay": "In vitro antibacterial activity of Example 5 against anaerobes (MIC, agar dilution)", "format": "cell-based", "details": "Cutibacterium acnes"}, "[6]": {"tested_on": "Prevotella melaninogenica", "assay": "In vitro antibacterial activity of Example 5 against anaerobes (MIC, agar dilution)", "format": "cell-based"}, "Bacillus subtilis": {"tested_on": "Bacillus subtilis", "assay": "In vitro antibacterial activity of Example 5 (MIC)", "format": "cell-based", "details": "11 strains of Bacillus subtilis"}, "B. cereus": {"tested_on": "B. cereus", "assay": "microbe, parasite or virus in culture", "format": "cell-based", "details": "Bacillus cereus"}, "Legionella pneumophila": {"tested_on": "Legionella pneumophila", "assay": "microbe, parasite or virus in culture", "format": "cell-based"}, "Neisseria gonorrhoeae [7]": {"tested_on": "Neisseria gonorrhoeae", "assay": "In vitro antibacterial activity of Example 5 (MIC, agar dilution)", "format": "cell-based", "details": "17 strains of Neisseria gonorrhoeae"}, "S. pyogenes ARC838": {"tested_on": "S. pyogenes ARC838", "assay": "Emergence of resistance with serial passage", "format": "cell-based, Streptococcus pyogenes", "details": "after twenty passages with Example 5, S. pyogenes ARC838"}, "Neisseria gonorrhoeae [8]": {"tested_on": "Neisseria gonorrhoeae", "assay": "MIC against 100 N. gonorrhoeae isolates, CLSI reference agar dilution", "format": "cell-based"}, "[9]": {"details": "azithromycin-intermediate isolates"}}, "note": "Where two headings read alike, the source gives them in different places."}
{"smiles": "C[C@@H]1CN2c3c(cc4c(N5C(=O)OC[C@@H]5C)noc4c3F)CC3(C(=O)NC(=O)NC3=O)[C@H]2[C@H](C)O1", "note": "[Example 5, (2R,4S,4aS)-11-Fluoro-2,4-dimethyl-8-[(4S)-4-methyl-2-oxo-1,3-oxazolidin-3-yl]-1,2,4,4a-tetrahydro-2′H,6H-spiro[1,4-oxazino[4,3-a][1,2]oxazolo[4,5-g]quinoline-5,5′-pyrimidine]-2′,4′,6′(1′H,3′H)-trione]", "values": [{"measurement": "IC50", "setting": "[1]", "value": 169, "unit": "nM"}, {"measurement": "MIC", "setting": "[2]", "value": 0.125, "unit": "µg/mL"}, {"measurement": "AUC(0-inf)", "setting": "[3]; nominal dose 10 mg/kg (measured 4.1)", "value": 32.6, "unit": "µg·h/mL"}, {"measurement": "AUC(0-inf)", "setting": "[3]; nominal dose 40 mg/kg (measured 25.4)", "value": 109, "unit": "µg·h/mL"}, {"measurement": "AUC(0-inf)", "setting": "[3]; nominal dose 60 mg/kg (measured 44.2)", "value": 153, "unit": "µg·h/mL"}, {"measurement": "AUC(0-inf)", "setting": "[3]; nominal dose 80 mg/kg (measured 66.2)", "value": 251, "unit": "µg·h/mL"}, {"measurement": "AUC(0-inf)", "setting": "[3]; nominal dose 160 mg/kg (measured 142.0)", "value": 614, "unit": "µg·h/mL"}, {"measurement": "MIC", "setting": "Burkholderia cepacia", "value": 64, "unit": "µg/mL"}, {"measurement": "MIC", "setting": "Candida albicans", "value": "> 64", "unit": "µg/mL"}, {"measurement": "MIC", "setting": "Enterococcus faecium", "value": 16, "unit": "µg/mL"}, {"measurement": "MIC90", "setting": "Enterococcus faecium; E. faecium", "value": 16, "unit": "µg/mL"}, {"measurement": "MIC", "setting": "Enterococcus faecium; Enterococcus faecium (Vancomycin-R, fluoroquinolone-R)", "value": 8, "unit": "µg/mL"}, {"measurement": "MIC", "setting": "Klebsiella oxytoca", "value": 32, "unit": "µg/mL"}, {"measurement": "MIC", "setting": "[4]; Staphylococcus epidermidis (MRSE)", "value": 0.25, "unit": "µg/mL"}, {"measurement": "MIC90", "setting": "[4]; Staphylococcus epidermidis, S. epidermidis, n=37", "value": 0.25, "unit": "µg/mL"}, {"measurement": "MIC", "setting": "[5]", "value": 0.5, "unit": "µg/mL"}, {"measurement": "MIC90", "setting": "[5]; S. saprophyticus, n=16", "value": 0.5, "unit": "µg/mL"}, {"measurement": "MIC", "setting": "Propionibacterium acnes", "value": 2, "unit": "µg/mL"}, {"measurement": "MIC", "setting": "[6]", "value": 0.25, "unit": "µg/mL"}, {"measurement": "MIC90", "setting": "Bacillus subtilis", "value": 0.5, "unit": "µg/mL"}, {"measurement": "MIC90", "setting": "B. cereus", "value": 0.5, "unit": "µg/mL"}, {"measurement": "MIC90", "setting": "Legionella pneumophila", "value": 0.06, "unit": "µg/mL"}, {"measurement": "MIC range", "setting": "Legionella pneumophila; n=11", "value": "0.008 to 0.06", "unit": "µg/mL"}, {"measurement": "MIC90", "setting": "Neisseria gonorrhoeae [7]", "value": 0.125, "unit": "µg/mL"}, {"measurement": "MIC range", "setting": "Neisseria gonorrhoeae [7]", "value": "0.03 to 0.25", "unit": "µg/mL"}, {"measurement": "decrease in susceptibility over the starting culture", "setting": "S. pyogenes ARC838", "value": 8, "unit": "fold"}, {"measurement": "MIC", "setting": "Neisseria gonorrhoeae [8]; Neisseria gonorrhoeae, ATCC49226, QC strain N. gonorrhoeae ATCC 49226, read-out: MIC", "value": 0.06, "unit": "µg/mL"}, {"measurement": "MIC", "setting": "Neisseria gonorrhoeae [8]; Neisseria gonorrhoeae, all 100 N. gonorrhoeae isolates tested, read-out: MIC values", "value": "≤ 0.25", "unit": "µg/mL"}, {"measurement": "MIC90", "setting": "Neisseria gonorrhoeae [8]; Neisseria gonorrhoeae, azithromycin-intermediate isolates, read-out: MIC90", "value": 0.12, "unit": "µg/mL"}, {"measurement": "MIC", "setting": "Neisseria gonorrhoeae [8]; Neisseria gonorrhoeae, azithromycin-susceptible and -intermediate isolates, read-out: modal MIC", "value": 0.06, "unit": "µg/mL"}, {"measurement": "MIC90", "setting": "Neisseria gonorrhoeae [8]; Neisseria gonorrhoeae, azithromycin-susceptible isolates, read-out: MIC90", "value": 0.06, "unit": "µg/mL"}, {"measurement": "MIC90", "setting": "Neisseria gonorrhoeae [8]; Neisseria gonorrhoeae, ciprofloxacin-intermediate and -resistant strains, read-out: MIC90", "value": 0.12, "unit": "µg/mL"}, {"measurement": "MIC", "setting": "Neisseria gonorrhoeae [8]; Neisseria gonorrhoeae, ciprofloxacin-intermediate and -resistant strains, read-out: modal MIC", "value": 0.06, "unit": "µg/mL"}, {"measurement": "MIC90", "setting": "Neisseria gonorrhoeae [8]; Neisseria gonorrhoeae, non-susceptible phenotypes, read-out: MIC90", "value": "0.06 to 0.12", "unit": "µg/mL"}, {"measurement": "MIC", "setting": "Neisseria gonorrhoeae [8]; Neisseria gonorrhoeae, penicillin-intermediate and -resistant strains, read-out: modal MIC", "value": 0.06, "unit": "µg/mL"}, {"measurement": "MIC90", "setting": "Neisseria gonorrhoeae [8]; Neisseria gonorrhoeae, penicillin-intermediate strains, read-out: MIC90", "value": 0.06, "unit": "µg/mL"}, {"measurement": "MIC90", "setting": "Neisseria gonorrhoeae [8]; Neisseria gonorrhoeae, penicillin-resistant strains, read-out: MIC90", "value": 0.12, "unit": "µg/mL"}, {"measurement": "MIC90", "setting": "Neisseria gonorrhoeae [8]; Neisseria gonorrhoeae, susceptible phenotypes (ciprofloxacin-, tetracycline- and azithromycin-susceptible), read-out: MIC90", "value": 0.06, "unit": "µg/mL"}, {"measurement": "MIC", "setting": "Neisseria gonorrhoeae [8]; Neisseria gonorrhoeae, tetracycline-intermediate and -resistant strains, read-out: modal MIC", "value": 0.06, "unit": "µg/mL"}, {"measurement": "MIC90", "setting": "Neisseria gonorrhoeae [8]; Neisseria gonorrhoeae, tetracycline-intermediate strains, read-out: MIC90", "value": 0.06, "unit": "µg/mL"}, {"measurement": "MIC90", "setting": "Neisseria gonorrhoeae [8]; Neisseria gonorrhoeae, tetracycline-resistant strains, read-out: MIC90", "value": 0.12, "unit": "µg/mL"}, {"measurement": "MIC", "setting": "Neisseria gonorrhoeae [8]; Neisseria gonorrhoeae, various subsets of isolates including those non-susceptible to comparator agents, read-out: modal MIC", "value": 0.06, "unit": "µg/mL"}, {"measurement": "MIC50", "setting": "Neisseria gonorrhoeae [8]; Neisseria gonorrhoeae, all 100 N. gonorrhoeae isolates, read-out: MIC50", "value": 0.06, "unit": "µg/mL"}, {"measurement": "MIC90", "setting": "Neisseria gonorrhoeae [8]; Neisseria gonorrhoeae, all 100 N. gonorrhoeae isolates, read-out: MIC90", "value": 0.125, "unit": "µg/mL"}, {"measurement": "MIC", "setting": "Neisseria gonorrhoeae [8]; QC strain N. gonorrhoeae ATCC 49226", "value": 0.12, "unit": "µg/mL"}, {"measurement": "MIC90", "setting": "Neisseria gonorrhoeae [8]; all 100 N. gonorrhoeae isolates", "value": 0.12, "unit": "µg/mL"}, {"measurement": "MIC50", "setting": "Neisseria gonorrhoeae [8]; [9]", "value": 0.06, "unit": "µg/mL"}, {"measurement": "isolates at 0.06 μg/mL", "setting": "Neisseria gonorrhoeae [8]; [9]", "value": 66.7, "unit": "%"}, {"measurement": "MIC50", "setting": "Neisseria gonorrhoeae [8]; azithromycin-susceptible isolates", "value": 0.06, "unit": "µg/mL"}, {"measurement": "MIC50", "setting": "Neisseria gonorrhoeae [8]; ciprofloxacin-intermediate and -resistant strains", "value": 0.06, "unit": "µg/mL"}, {"measurement": "MIC50", "setting": "Neisseria gonorrhoeae [8]; penicillin-intermediate strains", "value": 0.06, "unit": "µg/mL"}, {"measurement": "MIC50", "setting": "Neisseria gonorrhoeae [8]; penicillin-resistant strains", "value": 0.06, "unit": "µg/mL"}, {"measurement": "isolates at ≦0.06 μg/mL", "setting": "Neisseria gonorrhoeae [8]; penicillin-resistant strains", "value": 85.7, "unit": "%"}, {"measurement": "MIC50", "setting": "Neisseria gonorrhoeae [8]; tetracycline-intermediate strains", "value": 0.06, "unit": "µg/mL"}, {"measurement": "MIC50", "setting": "Neisseria gonorrhoeae [8]; tetracycline-resistant strains", "value": 0.06, "unit": "µg/mL"}, {"measurement": "isolates at 0.06 μg/mL", "setting": "Neisseria gonorrhoeae [8]; tetracycline-resistant strains", "value": 66.7, "unit": "%"}]}
